Consider 11 compounds from patent US12606561B2, “Substituted pyrazolo[1,5-a][1,3,5]triazines as CDK inhibitors” (QURIENT CO., LTD., priority 2018, dated 2026).

Broadly, the IC50 is the concentration at which inhibition is half-maximal.

Assay [1] concerns OVCAR-3. Description: OVCAR-3 viability assay (CellTiter-Glo, 72 hours). Particulars: Homo sapiens; OVCAR-3 cells. Format: cell-based. In short, it runs like this:
(§1)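 CellTiter-Glo luminescence measured viability after 72 h of compound exposure (0.0015–10 uM; DMSO below 0.1%) at 37 °C, 5% CO2, run in duplicate. Dosing began 24 h post-seeding in RPMI-1640/10% FBS at 1×10^4 (MV4-11), 5×10^3 (OVCAR-3) or 1×10^3 (A2780) cells/well.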
For orientation: In ATP-based viability assays light output follows the ATP content of the culture.

The target of assay [2] is T1, CDK7/Cyclin H/MNAT1 (Homo sapiens, UniProt P50613).
T1 construct: purchased Invitrogen PR6749B
Description: Enzymatic assay for CDK7 (LANCE Ultra kinase assay, FRET based). It is filed as biochemical. Conditions: for IC50: ATP at Km. In short, it runs like this: (§2)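 Purified CDK7/Cyclin H/MNAT1 or CDK1/Cyclin B complexes were tested for inhibition at Km ATP. Phosphorylation of a ULight-labelled peptide was detected by FRET with a Europium anti-phospho antibody (LANCE Ultra).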
(In general: TR-FRET usually uses a lanthanide donor and a delayed reading to cut background.)

Assay [3] deals with T2, CDK5/p25 (Homo sapiens, UniProt Q00535).
T2 construct: purchased Invitrogen PR8543B
Description: Enzymatic assay for CDK5 (LANCE Ultra kinase assay, FRET based). Particulars: ATP at Km. It is filed as biochemical. In a few lines: (§3)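 Inhibition was measured at ATP Km with 68 nM ULight-MBP peptide and CDK2/Cyclin A ([…]) or CDK5/p25 ([…]), using 8-dose 4-fold compound dilutions from DMSO. Kinase reaction ran 60 min at 23° C, then Eu anti-phospho-MBP plus EDTA were added for another 60 min before the fluorescence read.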

Assay [4] concerns the target T3, CDK2/Cyclin A (Homo sapiens, UniProt P24941).
T3 construct: purchased Invitrogen PV6290
Description: Enzymatic assay for CDK2 (LANCE Ultra kinase assay, FRET based). It is filed as biochemical. Conditions: ATP at Km. In short, it runs like this:
as §3

Assay [5] addresses T4, CDK1/Cyclin B (Homo sapiens, UniProt P06493).
T4 construct: purchased Invitrogen PR4768C
Description: Enzymatic assay for CDK1 (LANCE Ultra kinase assay, FRET based). It is filed as biochemical. Particulars: ATP at Km; read-out: CDK1 enzymatic activity IC50. In short, it runs like this:
as §2

Assay [6] has as its system MV4-11. Briefly: Cellular MV4-11 viability assay (CellTiter-Glo, 72 hours). Format: cell-based. Conditions: Homo sapiens; MV4-11 cells. In short, it runs like this:
as §1

Assay [7] concerns A2780. Briefly: A2780 viability assay (CellTiter-Glo, 72 hours). Particulars: Homo sapiens; A2780 cells. Format: cell-based. In a few lines:
as §1

T1 sequence (P50613 whole entry): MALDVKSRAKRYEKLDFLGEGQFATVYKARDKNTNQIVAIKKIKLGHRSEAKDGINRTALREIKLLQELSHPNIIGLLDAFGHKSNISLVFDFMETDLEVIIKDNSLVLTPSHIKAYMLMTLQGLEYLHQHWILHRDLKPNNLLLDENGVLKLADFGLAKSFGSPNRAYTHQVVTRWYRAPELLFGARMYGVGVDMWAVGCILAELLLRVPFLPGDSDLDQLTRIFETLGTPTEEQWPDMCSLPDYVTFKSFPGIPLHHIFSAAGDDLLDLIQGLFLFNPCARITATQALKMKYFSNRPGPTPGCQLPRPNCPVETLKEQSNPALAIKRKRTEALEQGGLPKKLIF
T1 sequence (P51946 whole entry partner): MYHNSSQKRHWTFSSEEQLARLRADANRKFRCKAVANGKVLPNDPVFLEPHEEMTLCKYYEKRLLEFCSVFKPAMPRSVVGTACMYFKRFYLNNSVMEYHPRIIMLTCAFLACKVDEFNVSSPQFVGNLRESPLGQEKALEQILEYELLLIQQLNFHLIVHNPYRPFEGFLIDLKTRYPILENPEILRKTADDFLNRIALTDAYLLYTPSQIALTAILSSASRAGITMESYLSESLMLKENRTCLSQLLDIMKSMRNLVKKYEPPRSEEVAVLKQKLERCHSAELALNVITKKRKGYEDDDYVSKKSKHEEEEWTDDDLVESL
T1 sequence (P51948 whole entry partner): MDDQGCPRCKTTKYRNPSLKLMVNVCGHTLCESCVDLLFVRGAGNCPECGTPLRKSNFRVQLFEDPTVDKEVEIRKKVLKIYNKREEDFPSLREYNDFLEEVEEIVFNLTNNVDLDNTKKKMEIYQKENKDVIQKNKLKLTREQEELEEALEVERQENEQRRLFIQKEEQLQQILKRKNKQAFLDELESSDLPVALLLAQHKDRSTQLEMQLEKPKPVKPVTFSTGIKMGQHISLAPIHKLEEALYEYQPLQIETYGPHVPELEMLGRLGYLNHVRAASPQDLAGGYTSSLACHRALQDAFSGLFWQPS
T2 sequence (Q00535 whole entry): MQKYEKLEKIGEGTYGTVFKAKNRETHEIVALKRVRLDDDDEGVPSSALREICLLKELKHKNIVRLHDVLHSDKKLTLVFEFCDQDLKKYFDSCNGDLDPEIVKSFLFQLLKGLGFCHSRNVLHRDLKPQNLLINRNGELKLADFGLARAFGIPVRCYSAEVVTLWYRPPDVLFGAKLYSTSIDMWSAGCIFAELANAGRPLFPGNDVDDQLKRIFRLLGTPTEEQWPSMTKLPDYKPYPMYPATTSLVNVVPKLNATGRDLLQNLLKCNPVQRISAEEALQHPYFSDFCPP
T2 sequence (Q15078 99-307 partner limits assumed): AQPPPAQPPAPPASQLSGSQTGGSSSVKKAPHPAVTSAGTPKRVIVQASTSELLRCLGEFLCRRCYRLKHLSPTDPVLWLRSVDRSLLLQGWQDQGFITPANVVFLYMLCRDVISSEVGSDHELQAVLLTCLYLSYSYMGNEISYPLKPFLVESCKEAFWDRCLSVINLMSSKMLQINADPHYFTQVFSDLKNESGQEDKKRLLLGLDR
T4 sequence (P06493 whole entry): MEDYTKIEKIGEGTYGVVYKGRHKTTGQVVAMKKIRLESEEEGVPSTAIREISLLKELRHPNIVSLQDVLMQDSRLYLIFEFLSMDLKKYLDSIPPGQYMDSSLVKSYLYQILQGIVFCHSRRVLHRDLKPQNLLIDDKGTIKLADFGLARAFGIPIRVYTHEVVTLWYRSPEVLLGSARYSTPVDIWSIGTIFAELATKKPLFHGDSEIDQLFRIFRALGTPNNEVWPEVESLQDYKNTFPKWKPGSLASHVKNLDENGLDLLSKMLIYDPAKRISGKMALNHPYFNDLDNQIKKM
T4 sequence (P14635 whole entry partner): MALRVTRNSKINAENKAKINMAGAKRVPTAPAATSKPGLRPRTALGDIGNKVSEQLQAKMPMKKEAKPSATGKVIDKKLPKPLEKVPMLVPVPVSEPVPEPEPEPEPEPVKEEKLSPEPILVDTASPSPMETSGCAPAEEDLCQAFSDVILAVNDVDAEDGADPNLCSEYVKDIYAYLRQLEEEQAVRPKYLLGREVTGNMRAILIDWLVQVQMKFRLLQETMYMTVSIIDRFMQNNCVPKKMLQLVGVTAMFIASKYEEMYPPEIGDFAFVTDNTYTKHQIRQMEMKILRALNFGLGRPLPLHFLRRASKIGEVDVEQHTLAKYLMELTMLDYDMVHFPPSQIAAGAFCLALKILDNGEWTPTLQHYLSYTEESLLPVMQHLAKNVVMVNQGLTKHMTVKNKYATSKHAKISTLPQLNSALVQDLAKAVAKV

For `CC(C)c1cnn2c(NCc3ccccc3-c3nccc4cc(NC(=O)/C=C/CN(C)C)ccc34)nc(N[C@H]3CC[C@H](O)C3)nc12` [Compound 32], the 50% inhibitory concentration (IC50) in assay [1] is less than 1000 nM; in assay [2] it was less than 100 nM; in assay [3], more than 1000 nM; in assay [4] it was more than 1000 nM; in assay [5] it was more than 1000 nM; in assay [6] it was less than 1000 nM. This compound also came in with a concentration for half-maximal inhibition (IC50) in assay [7] of less than 1000 nM. Moreover, the “CDK1/CDK7: Selectivity of CDK7 inhibition over CDK1 inhibition” value in assay [2] is “A (A indicates [fold] > 500)”. Further, the “CDK2/CDK7: Selectivity of CDK7 inhibition over CDK2 inhibition” value in assay [2] was “A (A indicates [fold] > 500)”. Moreover, the “CDK5/CDK7: Selectivity of CDK7 inhibition over CDK5 inhibition” value in assay [2] is “A (A indicates [fold] > 500)”.

For `C=C(F)C(=O)Nc1cccc2cc(-c3cccc(C)c3CNc3nc(NC[C@H]4CCNC[C@@H]4O)nc4c(C(C)C)cnn34)[nH]c12` [Compound 78], the IC50 was 1000 to 10000 nM in assay [1]; less than 100 nM in assay [2]; more than 1000 nM in assay [3]; more than 1000 nM in assay [4]; more than 1000 nM in assay [5]; less than 1000 nM in assay [6]. The IC50 in assay [7] is less than 1000 nM. Also, the “CDK1/CDK7: Selectivity of CDK7 inhibition over CDK1 inhibition” value in assay [2] is “A (A indicates [fold] > 500)”. The “CDK2/CDK7: Selectivity of CDK7 inhibition over CDK2 inhibition” value in assay [2] is “A (A indicates [fold] > 500)”. Besides, in assay [2], the “CDK5/CDK7: Selectivity of CDK7 inhibition over CDK5 inhibition” value is “B (B indicates 50 < [fold] ≤ 500)”.

As to `CC(C)c1cnn2c(NCc3ccccc3-c3nccc4cc(NC(=O)/C=C/CN(C)C)ccc34)nc(NCCC3CNCCO3)nc12` (racemic) [Compound 51], the IC50 was less than 1000 nM in assay [1]; less than 100 nM in assay [2]; more than 1000 nM in assay [3]; more than 1000 nM in assay [4]; more than 1000 nM in assay [5]; less than 1000 nM in assay [6]. The compound further displayed an IC50 in assay [7] of less than 1000 nM. Also, the “CDK1/CDK7: Selectivity of CDK7 inhibition over CDK1 inhibition” value in assay [2] was “A (A indicates [fold] > 500)”. Further, the “CDK2/CDK7: Selectivity of CDK7 inhibition over CDK2 inhibition” value in assay [2] is “A (A indicates [fold] > 500)”. Besides, in assay [2], the “CDK5/CDK7: Selectivity of CDK7 inhibition over CDK5 inhibition” value is “A (A indicates [fold] > 500)”.

`C/C=C/C(=O)Nc1ccc2c(-c3ccccc3CNc3nc(N4CCC(N)CC4)nc4c(C(C)C)cnn34)nccc2c1` [Compound 50]: the IC50 in assay [1] is less than 1000 nM; in assay [2], less than 100 nM; in assay [3], more than 1000 nM; in assay [4] it was more than 1000 nM; in assay [5], more than 1000 nM; in assay [6], less than 1000 nM. In addition, the IC50 in assay [7] is less than 1000 nM. Besides, in assay [2], the “CDK1/CDK7: Selectivity of CDK7 inhibition over CDK1 inhibition” value is “A (A indicates [fold] > 500)”. The “CDK2/CDK7: Selectivity of CDK7 inhibition over CDK2 inhibition” value in assay [2] was “A (A indicates [fold] > 500)”. The “CDK5/CDK7: Selectivity of CDK7 inhibition over CDK5 inhibition” value in assay [2] was “A (A indicates [fold] > 500)”.

For the compound `C/C=C/C(=O)Nc1ccc2c(-c3ccccc3CNc3cc(NC[C@H]4CCNC[C@@H]4O)nc4c(C(C)C)cnn34)nccc2c1` [Compound 72], the 50% inhibitory concentration (IC50) in assay [1] was less than 1000 nM; in assay [2], less than 100 nM; in assay [3], more than 1000 nM; in assay [4], more than 1000 nM; in assay [5], more than 1000 nM; in assay [6] it was less than 1000 nM. In assay [7], this compound registered an IC50 of less than 1000 nM. Besides, in assay [2], the “CDK1/CDK7: Selectivity of CDK7 inhibition over CDK1 inhibition” value is “A (A indicates [fold] > 500)”. Moreover, in assay [2], the “CDK2/CDK7: Selectivity of CDK7 inhibition over CDK2 inhibition” value is “A (A indicates [fold] > 500)”. Besides, the “CDK5/CDK7: Selectivity of CDK7 inhibition over CDK5 inhibition” value in assay [2] was “A (A indicates [fold] > 500)”.

In the case of `C/C=C/C(=O)Nc1ccc2c(-c3ccccc3CNc3nc(NCC4CNCCO4)nc4c(C(C)C)cnn34)nccc2c1` (racemic) [Compound 69], the IC50 in assay [1] was less than 1000 nM; in assay [2], less than 100 nM; in assay [3] it was more than 1000 nM; in assay [4] it was more than 1000 nM; in assay [5], more than 1000 nM; in assay [6] it was less than 1000 nM. For the same compound, in assay [7], the IC50 was less than 1000 nM. For the same compound, in assay [2], the “CDK1/CDK7: Selectivity of CDK7 inhibition over CDK1 inhibition” value is “B (B indicates 50 < [fold] ≤ 500)”. In addition, the “CDK2/CDK7: Selectivity of CDK7 inhibition over CDK2 inhibition” value in assay [2] is “B (B indicates 50 < [fold] ≤ 500)”. In addition, in assay [2], the “CDK5/CDK7: Selectivity of CDK7 inhibition over CDK5 inhibition” value is “B (B indicates 50 < [fold] ≤ 500)”.

As for `CC(C)c1cnn2c(NCc3ccccc3-c3nccc4cc(NC(=O)/C=C/CN(C)C)ccc34)nc(-n3ccc(CO)n3)nc12` [Compound 41], the IC50 in assay [1] is less than 1000 nM; in assay [2] it was less than 100 nM; in assay [3] it was more than 1000 nM; in assay [4] it was more than 1000 nM; in assay [5], more than 1000 nM; in assay [6], less than 1000 nM. The compound further came in with an IC50 in assay [7] of less than 1000 nM. In assay [2], the “CDK1/CDK7: Selectivity of CDK7 inhibition over CDK1 inhibition” value is “B (B indicates 50 < [fold] ≤ 500)”. Further, the “CDK2/CDK7: Selectivity of CDK7 inhibition over CDK2 inhibition” value in assay [2] is “B (B indicates 50 < [fold] ≤ 500)”. The “CDK5/CDK7: Selectivity of CDK7 inhibition over CDK5 inhibition” value in assay [2] was “B (B indicates 50 < [fold] ≤ 500)”.

In the case of `CC(C)c1cnn2c(NCc3ccccc3-c3nccc4cc(NC(=O)C5(C#N)CC5)ccc34)nc(N3CCC(N)CC3)nc12` [Compound 49], the 50% inhibitory concentration (IC50) was less than 1000 nM in assay [1]; less than 100 nM in assay [2]; more than 1000 nM in assay [3]; more than 1000 nM in assay [4]; more than 1000 nM in assay [5]; less than 1000 nM in assay [6]. The IC50 in assay [7] is less than 1000 nM. Besides, the “CDK1/CDK7: Selectivity of CDK7 inhibition over CDK1 inhibition” value in assay [2] was “A (A indicates [fold] > 500)”. The “CDK2/CDK7: Selectivity of CDK7 inhibition over CDK2 inhibition” value in assay [2] was “A (A indicates [fold] > 500)”. Further, the “CDK5/CDK7: Selectivity of CDK7 inhibition over CDK5 inhibition” value in assay [2] is “A (A indicates [fold] > 500)”.

Turning to `CC(C)c1cnn2c(NCc3ccccc3-c3nccc4cc(NC(=O)/C=C/CN(C)C)ccc34)nc(NCC3CCNCC3)nc12` [Compound 45], the IC50 in assay [1] is less than 1000 nM; in assay [2], less than 100 nM; in assay [3], more than 1000 nM; in assay [4], more than 1000 nM; in assay [5], more than 1000 nM; in assay [6], less than 1000 nM. The compound also showed an IC50 in assay [7] of less than 1000 nM. Also, the “CDK1/CDK7: Selectivity of CDK7 inhibition over CDK1 inhibition” value in assay [2] was “A (A indicates [fold] > 500)”. For the same compound, the “CDK2/CDK7: Selectivity of CDK7 inhibition over CDK2 inhibition” value in assay [2] was “A (A indicates [fold] > 500)”. Moreover, the “CDK5/CDK7: Selectivity of CDK7 inhibition over CDK5 inhibition” value in assay [2] is “A (A indicates [fold] > 500)”.

Take `C=C(F)C(=O)Nc1ccc2c(-c3ccccc3CNc3nc(N4CCNCC4)nc4c(C(C)C)cnn34)nccc2c1` [Compound 79]: the IC50 in assay [1] is less than 1000 nM; in assay [2], less than 100 nM; in assay [3], more than 1000 nM; in assay [4], more than 1000 nM; in assay [5] it was more than 1000 nM; in assay [6], less than 1000 nM. Moreover, the 50% inhibitory concentration (IC50) in assay [7] was less than 1000 nM. Besides, the “CDK1/CDK7: Selectivity of CDK7 inhibition over CDK1 inhibition” value in assay [2] was “A (A indicates [fold] > 500)”. Besides, in assay [2], the “CDK2/CDK7: Selectivity of CDK7 inhibition over CDK2 inhibition” value is “A (A indicates [fold] > 500)”. In addition, the “CDK5/CDK7: Selectivity of CDK7 inhibition over CDK5 inhibition” value in assay [2] was “A (A indicates [fold] > 500)”.

As for `CC(C)c1cnn2c(NCc3ccccc3-c3nccc4cc(NC(=O)/C=C/CN(C)C)ccc34)nc(N3CCCC(O)CC3)nc12` (racemic) [Compound 38], the IC50 in assay [1] was less than 1000 nM; in assay [2], 100 to 1000 nM; in assay [3], more than 1000 nM; in assay [4] it was more than 1000 nM; in assay [5], more than 1000 nM; in assay [6], less than 1000 nM. In assay [7], this compound yielded a half-inhibitory concentration (IC50) of less than 1000 nM. Also, the “CDK1/CDK7: Selectivity of CDK7 inhibition over CDK1 inhibition” value in assay [2] was “B (B indicates 50 < [fold] ≤ 500)”. Besides, in assay [2], the “CDK2/CDK7: Selectivity of CDK7 inhibition over CDK2 inhibition” value was “B (B indicates 50 < [fold] ≤ 500)”. Also, the “CDK5/CDK7: Selectivity of CDK7 inhibition over CDK5 inhibition” value in assay [2] is “B (B indicates 50 < [fold] ≤ 500)”.
